The subject of series [1] is MCF-7/Dox cell, which is MCF-7 expressing p-glycoprotein. To be noted: enhancement of anticancer activity of paclitaxel against MCF7/Dox; ED50 of paclitaxel alone / ED50 with 50 nM test compound.
Protocol: The cells were subcultured in 5% FBS (fetal bovine serum)/RPMI1640 medium supplemented with glutamine 2 mmol, sodium bicarbonate 3.7 g/L and gentamicin 10 mg/L at 37° C. in 5% CO2 incubator under 100% humidity, and collected using a 0.25% trypsin solution containing 3 mM 1,2-cyclohenxandiamine tetraacetic acid.
The collected cells were plated on a 96 well flat-bottomed plate at a density of 2×10^3 cells/well, and incubated in the same medium for 24 hours. Paclitaxel, an anticancer agent, was diluted with the same medium to obtain 10^−11˜10^−6 M test solutions. […] After incubating for 72 hours, the culture medium was removed, each well was treated with 10% trichloroacetic acid for 1 hour to fix the cells, washed with water, and dried at room temperature. After adding a dyeing solution containing 1% acetic acid with 0.4% SRB (sulforhodamine B) thereto, the wells were kept at room temperature for 30 min, and washed with 1% acetic acid to remove remaining SRB. […] Also, the enhancement of the anticancer activity of paclitaxel against MCF7/Dox (resistant cancer cells) was measured by determining ED^PAC50/ED50, wherein ED^PAC50 is the value determined for the case of paclitaxel alone.
The nature of series [2]: In vivo absorption of orally administered paclitaxel. The conditions noted are these: rats, oral 20 mg/kg paclitaxel with the compound (Control: with vehicle).
Protocol: In order to investigate the activity of the inventive compounds prepared in Examples, in vivo absorption tests were carried out as follows.
Blood samples were taken directly from the heart of each rat before and 1, 2, 4, 6, 8 and 24 hours after the administration.
Each of blood samples was centrifuged at 12,000 rpm to obtain a serum sample, 200 μl of which was mixed with 400 μl of acetonitrile (an internal standard) and the mixture was shaken to obtain an extract. The extract was centrifuged at 12,000 rpm, 4° C. for 5 min to obtain a supernatant.

Structures are written as SMILES.

On to `COc1cc2c(cc1OC)CN(CCc1ccc(-n3nnc(-c4cc(OC)c(OC)cc4NC(=O)c4cnc5ccccc5c4)n3)cc1)CC2` [Example 1, quinoline-3-carboxylic acid [2-(2-4-[2-(6,7-dimethoxy-3,4-dihydro-1H-isoquinolin-2-yl)-ethyl]-phenyl-2H-tetrazol-5-yl)-4,5-dimethoxy-phenyl]-amide], for which the “ED50^PAC/ED50” value in series [1] turned out to be 20.3. In addition, in series [2], the “AUC (ng · hr/ml), area under the curve of blood concentration till 24 hours” value is listed as 3,032 ± 1,108 ng · hr/ml; the “Cmax (ng/ml), maximum blood concentration” value is reported as 1,172 ± 433 ng/ml; the “Tmax (hr), time at the maximum blood concentration” value worked out at 1.0 h.

On to `COc1cc2c(cc1OC)CN(CCc1ccc(-n3nnc(-c4cc(OC)c(OC)cc4NC(=O)c4coc5ccccc5c4=O)n3)cc1)CC2` [Example 27, 4-oxo-4H-chromene-3-carboxylic acid [2-(2-{4-[2-(6,7-dimethoxy-3,4-dihydro-1H-isoquinolin-2-yl)-ethyl]-phenyl}-2H-tetrazol-5-yl)-4,5-dimethoxy-phenyl]-amide], for which the “ED50^PAC/ED50” value in series [1] was 2.1.

As to `COc1cc2c(cc1OC)CN(CCc1ccc(-n3nnc(-c4cc(F)c(F)cc4NC(=O)c4cnc5ccccc5c4)n3)cc1)CC2` [Example 28, quinoline-3-carboxylic acid [2-(2-{4-[2-(6,7-dimethoxy-3,4-dihydro-1H-isoquinolin-2-yl)-ethyl]-phenyl}-2H-tetrazol-5-yl)-4,5-difluoro-phenyl]-amide], in series [1], the “ED50^PAC/ED50” value was 19.9.

`COc1cc2c(cc1OC)CN(CCSc1ccc(-n3nnc(-c4cc(OC)c(OC)cc4NC(=O)c4cnc5ccccc5c4)n3)cc1)CC2` [Example 29, quinoline-3-carboxylic acid [2-(2-{4-[2-(6,7-dimethoxy-3,4-dihydro-1H-isoquinolin-2-yl)-ethylsulfanyl]-phenyl}-2H-tetrazol-5-yl)-4,5-dimethoxy-phenyl]-amide]: the “ED50^PAC/ED50” value in series [1] is reported as 21.3.

Regarding `COc1cc2c(cc1OC)CN(CCc1ccc(-n3nnc(-c4cc(OC)c(OC)cc4NC(=O)c4cnc5ccccc5c4)n3)cc1)CC2` [Example 30], the “ED50^PAC/ED50” value in series [1] amounted to 2.6.

Turning to `COc1cc2c(cc1OC)CN(CCc1ccc(-n3nnc(-c4cc(OC)c(OC)cc4NC(=O)C=Cc4ccccc4)n3)cc1)CC2` [Example 31, N-[2-(2-{4-[2-(6,7-dimethoxy-3,4-dihydro-1H-isoquinolin-2-yl)-ethyl]-phenyl}-2H-tetrazol-5-yl)-4,5-dimethoxy-phenyl]-3-phenyl-acrylamide], in series [1], the “ED50^PAC/ED50” value was found to be 2.7.

For the compound `COc1cc2c(cc1OC)CN(CCc1ccc(-n3nnc(-c4cc(OC)c(OC)cc4NC(=O)C=Cc4cnc5ccccc5c4)n3)cc1)CC2` [Example 32, N-[2-(2-{4-[2-(6,7-dimethoxy-3,4-dihydro-1H-isoquinolin-2-yl)-ethyl]-phenyl}-2H-tetrazol-5-yl)-4,5-dimethoxy-phenyl]-3-quinolin-3-yl-acrylamide], the “ED50^PAC/ED50” value in series [1] is on record as 19.2.

Consider `COc1ccc(CCN(C)CCc2ccc(-n3nnc(-c4cc(OC)c(OC)cc4NC(=O)c4cc(=O)c5ccccc5o4)n3)cc2)cc1OC` [Example 33, 4-oxo-4H-chromene-2-carboxylic acid (2-{2-[4-(2-{[2-(3,4-dimethoxy-phenyl)-ethyl]-methyl-amino}-ethyl)-phenyl]-2H-tetrazol-5-yl}-4,5-dimethoxy-phenyl)-amide], for which the “ED50^PAC/ED50” value in series [1] was 23.0.

(Values after patent US7625926B2, “P-glycoprotein inhibitor, method for preparing the same and pharmaceutical composition comprising the same” (Hanmi Pharm. Co., Ltd, priority 2003, dated 2009).)
